Where two headings read alike, the source gives them in different places.
How the values were obtained:
[1] = rat duodenal infusion, cited from earlier work
[2] = Lipid oxidation of O/W Menhaden oil-based emulsions; assay type: physicochemical; conditions: gallic acid alone or with coenzyme Q10; emulsified with egg yolk PC; pH 6.0; GC
[3] = test system: human promyelocytic leukemia HL-60 cells; conditions: cited from earlier work
[4] = from emulsions containing corn oil

Structure (SMILES) | average recovery in the lymph [1, 4] [%] | average recovery in the lymph ([1]; from olive oil emulsion) [%] | pro-/antioxidative properties of control samples [2] | apoptotic cell death [3]
CC(C)=CCC/C(C)=C/C=C/C(C)=C/C=C/C(C)=C/C=C/C=C(C)/C=C/C=C(C)/C=C/C=C(\C)CCC=C(C)C [LYC, lycopene] | 2.5 | 6 | – | –
O=C(O)c1cc(O)c(O)c(O)c1 [gallic acid] | – | – | prooxidative properties | induced apoptotic cell death
CC1=C(/C=C/C(C)=C/C=C/C(C)=C/C=C/C=C(C)/C=C/C=C(C)/C=C/C2=C(C)C(=O)[C@@H](O)CC2(C)C)C(C)(C)C[C@H](O)C1=O [astaxanthin] | 13 | 20 | – | –

— US7780873B2, “Bioactive complexes compositions and methods of use thereof” (Texas A&M University System, priority 2004, dated 2010)
